Among the data in patent US20140315933A1, “CHEMICAL COMPOUNDS” (Pfizer Limited, priority 2013, published 2014) are IC50 values, retold here.

T1 sequence (Q96S37 with tags, fused parts or gaps): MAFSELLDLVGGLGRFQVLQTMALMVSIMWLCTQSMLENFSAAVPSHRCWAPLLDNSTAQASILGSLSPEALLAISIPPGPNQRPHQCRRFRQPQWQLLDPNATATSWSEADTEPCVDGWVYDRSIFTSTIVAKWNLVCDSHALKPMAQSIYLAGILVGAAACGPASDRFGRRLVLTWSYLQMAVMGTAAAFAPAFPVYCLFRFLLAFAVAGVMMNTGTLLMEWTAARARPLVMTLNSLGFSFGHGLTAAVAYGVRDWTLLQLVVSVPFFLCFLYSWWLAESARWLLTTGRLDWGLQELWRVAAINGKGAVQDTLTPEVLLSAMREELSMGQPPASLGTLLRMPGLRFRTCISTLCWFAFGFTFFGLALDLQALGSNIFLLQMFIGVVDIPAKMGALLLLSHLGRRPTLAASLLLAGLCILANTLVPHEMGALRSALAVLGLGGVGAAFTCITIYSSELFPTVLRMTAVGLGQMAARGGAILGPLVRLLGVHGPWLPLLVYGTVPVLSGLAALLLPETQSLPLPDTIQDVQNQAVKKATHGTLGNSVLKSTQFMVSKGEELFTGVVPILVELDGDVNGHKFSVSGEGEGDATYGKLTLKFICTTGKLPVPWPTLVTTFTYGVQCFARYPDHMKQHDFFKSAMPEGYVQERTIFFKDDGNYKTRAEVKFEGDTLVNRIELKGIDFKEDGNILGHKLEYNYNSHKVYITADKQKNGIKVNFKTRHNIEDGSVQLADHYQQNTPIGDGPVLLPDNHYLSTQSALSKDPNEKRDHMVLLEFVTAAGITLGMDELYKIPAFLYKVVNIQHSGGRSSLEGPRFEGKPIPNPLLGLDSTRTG

This experiment has as its target T1, URAT-1 transporter (Homo sapiens, UniProt Q96S37).
T1 construct: expressed in transfected cells
Put plainly: URAT-1 inhibitor activity: [14C]-uric acid uptake into CHO-URAT1(L)GFP#8 (CHO#8) cells, scintillation proximity. The experiment is classed as cell-based. An outline of the steps: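 Scintillation proximity read-out of 30 nM (final) [14C]-uric acid uptake over three hours at room temperature in chloride-free HEPES buffer pH 7.4. Compounds, 0–10 μM final with 0.25% DMSO, were added 15 minutes before substrate; cells were a clonal CHO line with human URAT1(L)-eGFP, preincubated 1 hour in chloride buffer.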
In general, IC50 refers to the concentration at which inhibition is half-maximal. Low readings indicate inhibition by little substance, high ones a need for much substance. The molecule `COc1cc(OC)c(Oc2ccc(S(=O)(=O)Nc3ncc(Cl)s3)cc2C#N)c(OC)c1` [Example 90, N-(5-chloro-1,3-thiazol-2-yl)-3-cyano-4-(2,4,6-trimethoxyphenoxy)benzenesulfonamide] came in with an IC50 of 1670 nM.
In turn, `N#Cc1cc(S(=O)(=O)Nc2ncc(F)s2)ccc1Oc1ccc(Cl)cc1OC(F)(F)F` [Example 91, 4-[4-chloro-2-(trifluoromethoxy)phenoxy]-3-cyano-N-(5-fluoro-1,3-thiazol-2-yl)benzenesulfonamide] had an IC50 of 2630 nM.
In the case of `N#Cc1cc(S(=O)(=O)Nc2ncc(F)s2)ccc1Oc1ccc(Cl)cc1C(F)(F)F` [Example 92, 4-[4-chloro-2-(trifluoromethyl)phenoxy]-3-cyano-N-(5-fluoro-1,3-thiazol-2-yl)benzenesulfonamide], the IC50 is above 7860 nM.
Consider `Cc1cc(F)ccc1Oc1ccc(S(=O)(=O)Nc2ncc(F)s2)cc1C#N` [Example 93, 3-cyano-4-(4-fluoro-2-methylphenoxy)-N-(5-fluoro-1,3-thiazol-2-yl)benzenesulfonamide], for which the IC50 is above 1610 nM.
Molecule `N#Cc1cc(S(=O)(=O)Nc2ncc(F)s2)ccc1Oc1c(F)cccc1F` [Example 94, 3-cyano-4-(2,6-difluorophenoxy)-N-(5-fluoro-1,3-thiazol-2-yl)benzenesulfonamide] gave an IC50 of 621 nM.
As to `CCc1ccc(Oc2ccc(S(=O)(=O)Nc3ncc(F)s3)cc2C#N)cc1` [Example 95, 3-cyano-4-(4-ethylphenoxy)-N-(5-fluoro-1,3-thiazol-2-yl)benzenesulfonamide], the IC50 was above 7360 nM.
In the case of `N#Cc1cc(S(=O)(=O)Nc2ncc(F)s2)ccc1Oc1ccccc1Cl` [Example 96, 4-(2-chlorophenoxy)-3-cyano-N-(5-fluoro-1,3-thiazol-2-yl)benzenesulfonamide] it was 675 nM; in that of `CC(C)c1ccccc1Oc1ccc(S(=O)(=O)Nc2ncc(F)s2)cc1C#N` [Example 97, 3-cyano-N-(5-fluoro-1,3-thiazol-2-yl)-4-[2-(propan-2-yl)phenoxy]benzenesulfonamide], 1170 nM.
In turn, `N#Cc1cc(S(=O)(=O)Nc2ncc(F)s2)ccc1Oc1ccc(Cl)cc1` [Example 98, 4-(4-chlorophenoxy)-3-cyano-N-(5-fluoro-1,3-thiazol-2-yl)benzenesulfonamide] registered an IC50 above 1690 nM.
`CCc1cccc(Oc2ccc(S(=O)(=O)Nc3ncc(F)s3)cc2C#N)c1` [Example 99, 3-cyano-4-(3-ethylphenoxy)-N-(5-fluoro-1,3-thiazol-2-yl)benzenesulfonamide]: the IC50 is 1630 nM.
`CCOc1cccc(Oc2ccc(S(=O)(=O)Nc3ncc(F)s3)cc2C#N)c1` [Example 100, 3-cyano-4-(3-ethoxyphenoxy)-N-(5-fluoro-1,3-thiazol-2-yl)benzenesulfonamide]: the midpoint of inhibition, the IC50, lay at 554 nM.
Under `Cc1ccc(Oc2ccc(S(=O)(=O)Nc3ncc(F)s3)cc2C#N)c(C)c1` [Example 101, 3-cyano-4-(2,4-dimethylphenoxy)-N-(5-fluoro-1,3-thiazol-2-yl)benzenesulfonamide] stands 1760 nM; under `N#Cc1cc(S(=O)(=O)Nc2ncc(F)s2)ccc1Oc1cc(F)ccc1F` [Example 102, 3-cyano-4-(2,5-difluorophenoxy)-N-(5-fluoro-1,3-thiazol-2-yl)benzenesulfonamide], 1430 nM.
`CC(C)c1ccc(Oc2ccc(S(=O)(=O)Nc3ncc(F)s3)cc2C#N)cc1` [Example 103, 3-cyano-N-(5-fluoro-1,3-thiazol-2-yl)-4-[4-(propan-2-yl)phenoxy]benzenesulfonamide]: the IC50 was above 6780 nM.
The molecule `N#Cc1cc(S(=O)(=O)Nc2ncc(F)s2)ccc1Oc1ccccc1F` [Example 104, 3-cyano-4-(2-fluorophenoxy)-N-(5-fluoro-1,3-thiazol-2-yl)benzenesulfonamide] displayed an IC50 of 2620 nM.
`Cc1ccc(F)cc1Oc1ccc(S(=O)(=O)Nc2ncc(F)s2)cc1C#N` [Example 105, 3-cyano-4-(5-fluoro-2-methylphenoxy)-N-(5-fluoro-1,3-thiazol-2-yl)benzenesulfonamide] yielded an IC50 above 1790 nM.
Molecule `N#Cc1cc(S(=O)(=O)Nc2ncc(F)s2)ccc1Oc1cc(F)cc(F)c1` [Example 106, 3-cyano-4-(3,5-difluorophenoxy)-N-(5-fluoro-1,3-thiazol-2-yl)benzenesulfonamide] yielded an IC50 above 1340 nM.
In the case of `CC(C)c1cccc(Oc2ccc(S(=O)(=O)Nc3ncc(F)s3)cc2C#N)c1` [Example 107, 3-cyano-N-(5-fluoro-1,3-thiazol-2-yl)-4-[3-(propan-2-yl)phenoxy]benzenesulfonamide] it was above 6780 nM; in that of `CCc1ccccc1Oc1ccc(S(=O)(=O)Nc2ncc(F)s2)cc1C#N` [Example 108, 3-cyano-4-(2-ethylphenoxy)-N-(5-fluoro-1,3-thiazol-2-yl)benzenesulfonamide], 345 nM.
`COc1cccc(Oc2ccc(S(=O)(=O)Nc3ncc(F)s3)cc2C#N)c1` [Example 109, 3-cyano-N-(5-fluoro-1,3-thiazol-2-yl)-4-(3-methoxyphenoxy)benzenesulfonamide] displayed an IC50 of 552 nM. This IC50 lies about 1.6-fold higher than the previous one.
With `N#Cc1cc(S(=O)(=O)Nc2ncc(F)s2)ccc1Oc1cccc(Cl)c1` [Example 110, 4-(3-chlorophenoxy)-3-cyano-N-(5-fluoro-1,3-thiazol-2-yl)benzenesulfonamide], the IC50 was above 7540 nM.
Under `N#Cc1cc(S(=O)(=O)Nc2ncc(F)s2)ccc1Oc1ccc(F)c(Cl)c1` [Example 111, 4-(3-chloro-4-fluorophenoxy)-3-cyano-N-(5-fluoro-1,3-thiazol-2-yl)benzenesulfonamide] stands 871 nM.
The molecule `Cc1ccccc1Oc1ccc(S(=O)(=O)Nc2ncc(F)s2)cc1C#N` [Example 112, 3-cyano-N-(5-fluoro-1,3-thiazol-2-yl)-4-(2-methylphenoxy)benzenesulfonamide] showed an IC50 of 4030 nM. This IC50 is about 4.6-fold higher than that of the molecule before.
In turn, `N#Cc1cc(S(=O)(=O)Nc2ncc(F)s2)ccc1Oc1cc(F)c(F)cc1F` [Example 113, 3-cyano-N-(5-fluoro-1,3-thiazol-2-yl)-4-(2,4,5-trifluorophenoxy)benzenesulfonamide] had an IC50 of 1120 nM.
As to `N#Cc1cc(S(=O)(=O)Nc2ncc(F)s2)ccc1Oc1cccc(F)c1F` [Example 114, 3-cyano-4-(2,3-difluorophenoxy)-N-(5-fluoro-1,3-thiazol-2-yl)benzenesulfonamide], the IC50 amounted to 4410 nM.
In turn, `N#Cc1cc(S(=O)(=O)Nc2ncc(F)s2)ccc1Oc1c(F)ccc(F)c1F` [Example 115, 3-cyano-N-(5-fluoro-1,3-thiazol-2-yl)-4-(2,3,6-trifluorophenoxy)benzenesulfonamide] gave an IC50 of 1630 nM.
On to `N#Cc1cc(S(=O)(=O)Nc2ncc(F)s2)ccc1Oc1ccc(Cl)cc1F` [Example 116, 4-(4-chloro-2-fluorophenoxy)-3-cyano-N-(5-fluoro-1,3-thiazol-2-yl)benzenesulfonamide], for which the IC50 is above 5310 nM.
Under `Cc1cc(Cl)ccc1Oc1ccc(S(=O)(=O)Nc2ncc(F)s2)cc1C#N` [Example 117, 4-(4-chloro-2-methylphenoxy)-3-cyano-N-(5-fluoro-1,3-thiazol-2-yl)benzenesulfonamide] stands 1440 nM.
In the case of `N#Cc1cc(S(=O)(=O)Nc2ncc(F)s2)ccc1Oc1cc(F)c(F)c(F)c1` [Example 118, 3-cyano-N-(5-fluoro-1,3-thiazol-2-yl)-4-(3,4,5-trifluorophenoxy)benzenesulfonamide], the IC50 worked out at 1380 nM.
